Assay [1] deals with Procathepsin L (Homo sapiens, UniProt P07711). Description: (§1) Enzyme Inhibition Assay: Enzyme activity is measured by observing the increase in fluorescence intensity caused by cleavage of a peptide substrate containing a fluorophore whose emission is quenched in the intact peptide.Assay buffer: 100 mM potassium phosphate pH 6.5, EDTA-Na 5 mM, Triton X-100 0.001%, DTT 5 mM.Enzymes (all at 1 nM): human and mouse Cathepsin S, Cat K, Cat B, Cat L.Substrate (20 μM): Z-Val-Val-Arg-AMC, except for Cat K which uses Z-Leu-Arg-AMC (both from Bachem).Z=Benzyloxycarbonyl.AMC=7-Amino-4-Methyl-Coumarin.DTT=dithiothreitol.Final volume: 100 μL.Excitation 360 nm, Emission 465 nm.Enzyme is added to the substance dilutions in 96-well microtitre plates and the reaction is started with substrate. Fluorescence emission is measured over 20 minutes, during which time a linear increase is observed in the absence of inhibitor.

Assay [2] has as its target Cathepsin S (Homo sapiens, UniProt P25774). Described as §1.

Our source for the IC50 values is ChEMBL document CHEMBL3638976, “Azetidine derivatives” (2014).

As a reminder, the IC50 is the concentration that gives 50% inhibition. Low values mean inhibition by little substance, high ones a need for much substance.

Sequence of Cathepsin S (P25774 whole entry): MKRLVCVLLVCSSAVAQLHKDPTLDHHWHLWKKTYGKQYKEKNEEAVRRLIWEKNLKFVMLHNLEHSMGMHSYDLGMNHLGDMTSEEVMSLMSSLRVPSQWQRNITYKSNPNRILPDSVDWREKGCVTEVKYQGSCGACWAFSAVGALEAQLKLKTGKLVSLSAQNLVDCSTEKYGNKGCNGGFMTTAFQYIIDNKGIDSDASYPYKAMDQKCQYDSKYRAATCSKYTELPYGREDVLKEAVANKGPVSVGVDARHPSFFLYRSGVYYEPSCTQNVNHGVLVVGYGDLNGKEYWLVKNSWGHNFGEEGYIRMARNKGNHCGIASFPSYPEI
Sequence of Procathepsin L (P07711 whole entry): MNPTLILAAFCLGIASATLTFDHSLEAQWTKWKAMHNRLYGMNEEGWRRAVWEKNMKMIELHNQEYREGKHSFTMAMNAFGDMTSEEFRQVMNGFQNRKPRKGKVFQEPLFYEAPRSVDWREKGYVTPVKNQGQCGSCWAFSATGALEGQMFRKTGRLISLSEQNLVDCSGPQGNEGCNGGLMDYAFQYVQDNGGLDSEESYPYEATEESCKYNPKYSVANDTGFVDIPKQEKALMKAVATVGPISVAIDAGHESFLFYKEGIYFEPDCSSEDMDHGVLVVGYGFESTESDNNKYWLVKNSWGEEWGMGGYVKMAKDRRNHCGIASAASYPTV

As for `Cn1cc(-c2ccc(S(=O)(=O)[C@@H]3C[C@@H](C(=O)NC4(C#N)CC4)N(C(=O)C4(c5ncc(Br)cc5F)CCN4C(=O)OC(C)(C)C)C3)c(Cl)c2)cn1` (stereo partly drawn), the half-maximal inhibitory concentration (IC50) in assay [1] amounted to 1160 nM; in assay [2], 1.12 nM.

Regarding `C[C@H](Oc1ccc(S(=O)(=O)[C@@H]2C[C@@H](C(=O)NC3(C#N)CC3)N(C(=O)C3(c4ncc(Br)cc4F)CN(C)C3)C2)c(Cl)c1)C(F)(F)F`, the IC50 was found to be 16.6 nM in assay [1] and 2.13 nM in assay [2].

With `C[C@H](Oc1ccc(S(=O)(=O)[C@@H]2C[C@@H](C(=O)NC3(C#N)CC3)N(C(=O)C3(c4ncc(Br)cc4F)CCN3C(=O)OC(C)(C)C)C2)c(Cl)c1)C(F)(F)F` (stereo partly drawn), the half-maximal inhibitory concentration (IC50) is 188 nM in assay [1] and 5.5 nM in assay [2].

With `Cc1cc(-c2ccc(S(=O)(=O)[C@@H]3C[C@@H](C(=O)NC4(C#N)CC4)N(C(=O)C4(c5ncc(Cl)cc5F)CCN4C(=O)OC(C)(C)C)C3)c(Cl)c2)ccn1` (stereo partly drawn), the IC50 turned out to be 523 nM in assay [1] and 1.55 nM in assay [2].
